System: preclinical breast cancer model
Test: Preclinical breast cancer model, tumor weight / volume
Type: in vivo
Conditions: 70 mg/kg Pan-PI3K inhibitor; 60 mg/kg compound A; FIG. 9 left panel

With Nc1nc2cc(-c3ccc4ncc(C(=O)N5CCOCC5)n4c3)ccc2o1 [Compound A] the “tumor weight of a breast cancer model” value was “reduction in tumor weight”.

Source: patent publication US20150087627A1, “COMBINATION OF KINASE INHIBITORS AND USES THEREOF” (Intellikine LLC, priority 2011, published 2015)
